In ChEMBL document CHEMBL3784916, “Synthesis and anticancer activity of novel fluorinated asiatic acid derivatives” (Eur J Med Chem, 2016):

Experiments:
[1] = test system: HeLa; experiment: Cytotoxicity against human HeLa cells after 72 hrs by MTT assay; assay type: functional, cell-based
[2] = test system: Jurkat; experiment: Cytotoxicity against human Jurkat cells after 72 hrs by XTT assay; assay type: functional, cell-based
[3] = test system: PC-3; experiment: Cytotoxicity against human PC3 cells after 72 hrs by MTT assay; assay type: functional, cell-based
[4] = test system: MCF7; experiment: Cytotoxicity against human MCF7 cells after 72 hrs by MTT assay; assay type: functional, cell-based
[5] = test system: MIA PaCa-2; experiment: Cytotoxicity against human MIAPaCa2 cells after 72 hrs by MTT assay; assay type: functional, cell-based
[6] = test system: A-375; experiment: Cytotoxicity against human A375 cells after 72 hrs by MTT assay; assay type: functional, cell-based
[7] = test system: BJ; experiment: Cytotoxicity against human BJ cells after 72 hrs by MTT assay; assay type: cell-based; conditions: human, bj
[8] = test system: HT-29; experiment: Cytotoxicity against human HT-29 cells after 72 hrs by MTT assay; assay type: functional, cell-based; conditions: HT-29, 72 h

Compound	IC50 [1] [µM]	Activity [2]	Activity [3]	Activity [4]	Activity [5]	Activity [6]	Activity [7]	IC50 [8] [µM]
COC(=O)CNC(=O)[C@]12CC[C@@H](C)[C@H](C)[C@H]1C1=CC[C@@H]3[C@@]4(C)C[C@@H](OC(C)=O)[C@H](OC(C)=O)[C@@](C)(COC(C)=O)[C@@H]4CC[C@@]3(C)[C@]1(C)CC2	0.98	Dose-dependent effect	Dose-dependent effect	Dose-dependent effect	Dose-dependent effect	Dose-dependent effect	Dose-dependent effect	–
C[C@H]1[C@H](C)CC[C@@]23CC[C@]4(C)[C@](OC2=O)([C@H](F)C[C@@H]2[C@@]5(C)C[C@@H](O)[C@H](O)[C@@](C)(CO)[C@@H]5CC[C@]24C)[C@H]13	60.2	Dose-dependent effect	Dose-dependent effect	Dose-dependent effect	Dose-dependent effect	Dose-dependent effect	Dose-dependent effect	51.2
COC(=O)[C@H](C)N1C(=O)[C@]23CC[C@@H](C)[C@H](C)[C@H]2[C@]12[C@H](F)C[C@@H]1[C@@]4(C)C[C@@H](OC(C)=O)[C@H](OC(C)=O)[C@@](C)(COC(C)=O)[C@@H]4CC[C@@]1(C)[C@]2(C)CC3	3.97	Dose-dependent effect	Dose-dependent effect	Dose-dependent effect	Dose-dependent effect	Dose-dependent effect	Dose-dependent effect	6.37
C[C@H]1[C@H](C)CC[C@@]23CC[C@]4(C)[C@](OC2=O)([C@H](F)C[C@@H]2[C@@]5(C)C(C=O)=C[C@@](C)(COC(=O)CCC(=O)O)[C@@H]5CC[C@]24C)[C@H]13	3.48	Dose-dependent effect	Dose-dependent effect	Dose-dependent effect	Dose-dependent effect	Dose-dependent effect	Dose-dependent effect	6.35
C[C@H]1[C@H](C)CC[C@@]23CC[C@]4(C)[C@](OC2=O)([C@H](F)C[C@@H]2[C@@]5(C)C(C#N)=C[C@@](C)(CO)[C@@H]5CC[C@]24C)[C@H]13	7.5	Dose-dependent effect	Dose-dependent effect	Dose-dependent effect	Dose-dependent effect	Dose-dependent effect	Dose-dependent effect	–
C[C@H]1[C@H](C)CC[C@@]23CC[C@]4(C)[C@](OC2=O)([C@H](F)C[C@@H]2[C@@]5(C)C(C=O)=C[C@@](C)(CO)[C@@H]5CC[C@]24C)[C@H]13	1.08	Dose-dependent effect	Dose-dependent effect	Dose-dependent effect	Dose-dependent effect	Dose-dependent effect	Dose-dependent effect	1.28
Cc1nccn1C(=O)OC[C@]1(C)C=C(C=O)[C@@]2(C)[C@H]1CC[C@]1(C)[C@@H]2C[C@@H](F)[C@]23OC(=O)[C@@]4(CC[C@@H](C)[C@H](C)[C@H]42)CC[C@]31C	1.63	Dose-dependent effect	Dose-dependent effect	Dose-dependent effect	Dose-dependent effect	Dose-dependent effect	Dose-dependent effect	2.8
CNC(=O)[C@]12CC[C@@H](C)[C@H](C)[C@H]1C1=CC[C@@H]3[C@@]4(C)C[C@@H](OC(C)=O)[C@H](OC(C)=O)[C@@](C)(COC(C)=O)[C@@H]4CC[C@@]3(C)[C@]1(C)CC2	1.1	Dose-dependent effect	Dose-dependent effect	Dose-dependent effect	Dose-dependent effect	Dose-dependent effect	Dose-dependent effect	–
C[C@H]1[C@H](C)CC[C@@]23CC[C@]4(C)[C@](OC2=O)([C@H](F)C[C@@H]2[C@@]5(C)CC(=O)[C@H](O)[C@@](C)(CO)[C@@H]5CC[C@]24C)[C@H]13	24.5	Dose-dependent effect	Dose-dependent effect	Dose-dependent effect	Dose-dependent effect	Dose-dependent effect	Dose-dependent effect	23.5
C[C@H]1[C@H](C)CC[C@@]23CC[C@]4(C)[C@](OC2=O)([C@H](F)C[C@@H]2[C@@]5(C)C(C=O)=C[C@@](C)(COC(=O)n6ccnc6)[C@@H]5CC[C@]24C)[C@H]13	1.62	Dose-dependent effect	Dose-dependent effect	Dose-dependent effect	Dose-dependent effect	Dose-dependent effect	Dose-dependent effect	2.37
CC(=O)OC[C@@]1(C)[C@@H]2CC[C@]3(C)[C@H](C[C@@H](F)[C@]45OC(=O)[C@@]6(CC[C@@H](C)[C@H](C)[C@H]64)CC[C@]53C)[C@@]2(C)C[C@@H](OC(C)=O)[C@@H]1OC(C)=O	4.43	Dose-dependent effect	Dose-dependent effect	Dose-dependent effect	Dose-dependent effect	Dose-dependent effect	Dose-dependent effect	6.38
CCCC(=O)OC[C@@]1(C)[C@@H]2CC[C@]3(C)[C@H](C[C@@H](F)[C@]45OC(=O)[C@@]6(CC[C@@H](C)[C@H](C)[C@H]64)CC[C@]53C)[C@@]2(C)C[C@@H](OC(=O)CCC)[C@@H]1OC(=O)CCC	5.05	Dose-dependent effect	Dose-dependent effect	Dose-dependent effect	Dose-dependent effect	Dose-dependent effect	Dose-dependent effect	7.4
CC(=O)OC[C@@]1(C)[C@@H]2CC[C@]3(C)[C@H](C[C@@H](F)[C@]45[C@@H]6[C@@H](C)[C@H](C)CC[C@@]6(CC[C@]43C)C(=O)N5C)[C@@]2(C)C[C@@H](OC(C)=O)[C@@H]1OC(C)=O	2.95	Dose-dependent effect	Dose-dependent effect	Dose-dependent effect	Dose-dependent effect	Dose-dependent effect	Dose-dependent effect	8.5
CC(=O)OC[C@@]1(C)[C@@H]2CC[C@]3(C)[C@H](CC=C4[C@@H]5[C@@H](C)[C@H](C)CC[C@]5(C(=O)O)CC[C@]43C)[C@@]2(C)C[C@@H](OC(C)=O)[C@@H]1OC(C)=O	6.1	Dose-dependent effect	Dose-dependent effect	Dose-dependent effect	Dose-dependent effect	Dose-dependent effect	Dose-dependent effect	–
COC(=O)[C@H](C)NC(=O)[C@]12CC[C@@H](C)[C@H](C)[C@H]1C1=CC[C@@H]3[C@@]4(C)C[C@@H](OC(C)=O)[C@H](OC(C)=O)[C@@](C)(COC(C)=O)[C@@H]4CC[C@@]3(C)[C@]1(C)CC2	1.07	Dose-dependent effect	Dose-dependent effect	Dose-dependent effect	Dose-dependent effect	Dose-dependent effect	Dose-dependent effect	–
CC(=O)OC[C@]1(C)C=C(C=O)[C@@]2(C)[C@H]1CC[C@]1(C)[C@@H]2C[C@@H](F)[C@]23OC(=O)[C@@]4(CC[C@@H](C)[C@H](C)[C@H]42)CC[C@]31C	1.4	Dose-dependent effect	Dose-dependent effect	Dose-dependent effect	Dose-dependent effect	Dose-dependent effect	Dose-dependent effect	2.02
CC(=O)OC[C@@]1(C)[C@@H]2CC[C@]3(C)[C@H](CC=C4[C@@H]5[C@@H](C)[C@H](C)CC[C@]5(C(N)=O)CC[C@]43C)[C@@]2(C)C[C@@H](OC(C)=O)[C@@H]1OC(C)=O	1.65	Dose-dependent effect	Dose-dependent effect	Dose-dependent effect	Dose-dependent effect	Dose-dependent effect	Dose-dependent effect	–
C[C@H]1[C@H](C)CC[C@@]23CC[C@]4(C)[C@](OC2=O)([C@H](F)C[C@@H]2[C@@]5(C)C[C@@H](O)OC[C@](C)(C=O)[C@@H]5CC[C@]24C)[C@H]13	7.4	Dose-dependent effect	Dose-dependent effect	Dose-dependent effect	Dose-dependent effect	Dose-dependent effect	Dose-dependent effect	11.2
CC(=O)OC[C@@]1(C)[C@@H]2CC[C@]3(C)[C@H](C[C@@H](F)[C@]45OC(=O)[C@@]6(CC[C@@H](C)[C@H](C)[C@H]64)CC[C@]53C)[C@@]2(C)CC(=O)[C@@H]1OC(C)=O	11.7	Dose-dependent effect	Dose-dependent effect	Dose-dependent effect	Dose-dependent effect	Dose-dependent effect	Dose-dependent effect	–
